{"source": "ChEMBL document CHEMBL6153107", "about": "“Derailment of the Biosynthesis via an Acid-Mediated Intramolecular Cyclo-rearrangement Leads to a Novel Cytochalasin Skeleton” (J Nat Prod, 2025)", "key": {"[1]": {"system": "RKO", "assay": "Binding affinity to F-actin in human RKO cells assessed as disruption of cytoskeleton organization by measuring transforming regular fibrous into punctuate structure at 16.7 uM incubated for 48 hrs by tetramethylrhodamine-phalloidin staining based confocal laser scanning microscopy", "type": "cell-based"}, "[2]": {"system": "RKO", "assay": "Cytotoxicity against human RKO cells assessed as inhibition of cell growth incubated for 48 hrs by DAPI staining based high-content imaging analysis", "type": "functional"}, "[3]": {"system": "HeLa", "assay": "Cytotoxicity against human HeLa cells assessed as inhibition of cell growth incubated for 48 hrs by DAPI staining based high-content imaging analysis", "type": "functional"}, "[4]": {"system": "RKO", "assay": "Induction of cell cycle arrest in human RKO cells assessed as accumulation of cells at G2/M phase incubated for 48 hrs by DAPI staining based high-content imaging analysis", "type": "functional"}, "[5]": {"system": "HeLa", "assay": "Induction of cell cycle arrest in human HeLa cells assessed as accumulation of cells G2/M phase incubated for 48 hrs by DAPI staining based high-content imaging analysis", "type": "functional"}, "[6]": {"system": "HeLa", "assay": "Binding affinity to F-actin in human HeLa cells assessed as disruption of cytoskeleton organization by measuring transforming regular fibrous into punctuate structure at 27.8 uM incubated for 48 hrs by tetramethylrhodamine-phalloidin staining based confocal laser scanning microscopy", "type": "cell-based"}, "[7]": {"system": "HeLa", "assay": "Binding affinity to F-actin in human HeLa cells assessed as disruption of cytoskeleton organization by measuring transforming regular fibrous into punctuate structure at 0.9 uM incubated for 48 hrs by tetramethylrhodamine-phalloidin staining based confocal laser scanning microscopy", "type": "cell-based"}, "[8]": {"system": "RKO", "assay": "Binding affinity to F-actin in human RKO cells assessed as disruption of cytoskeleton organization by measuring transforming regular fibrous into punctuate structure at 0.8 uM incubated for 48 hrs by tetramethylrhodamine-phalloidin staining based confocal laser scanning microscopy", "type": "cell-based"}, "[9]": {"system": "RKO", "assay": "Binding affinity to F-actin in human RKO cells assessed as disruption of cytoskeleton organization by measuring transforming regular fibrous into punctuate structure at 1.6 uM incubated for 48 hrs by tetramethylrhodamine-phalloidin staining based confocal laser scanning microscopy", "type": "cell-based"}, "[10]": {"system": "HeLa", "assay": "Binding affinity to F-actin in human HeLa cells assessed as disruption of cytoskeleton organization by measuring transforming regular fibrous into punctuate structure at 2 uM incubated for 48 hrs by tetramethylrhodamine-phalloidin staining based confocal laser scanning microscopy", "type": "cell-based"}, "[11]": {"system": "RKO", "assay": "Binding affinity to F-actin in human RKO cells assessed as disruption of cytoskeleton organization by measuring transforming regular fibrous into punctuate structure at 50 uM incubated for 48 hrs by tetramethylrhodamine-phalloidin staining based confocal laser scanning microscopy", "type": "cell-based"}, "[12]": {"system": "HeLa", "assay": "Binding affinity to F-actin in human HeLa cells assessed as disruption of cytoskeleton organization by measuring transforming regular fibrous into punctuate structure at 50 uM incubated for 48 hrs by tetramethylrhodamine-phalloidin staining based confocal laser scanning microscopy", "type": "cell-based"}, "[13]": {"system": "RKO", "assay": "Binding affinity to F-actin in human RKO cells assessed as disruption of cytoskeleton organization by measuring transforming regular fibrous into punctuate structure at 11.1 uM incubated for 48 hrs by tetramethylrhodamine-phalloidin staining based confocal laser scanning microscopy", "type": "cell-based"}, "[14]": {"system": "HeLa", "assay": "Binding affinity to F-actin in human HeLa cells assessed as disruption of cytoskeleton organization by measuring transforming regular fibrous into punctuate structure at 12.3 uM incubated for 48 hrs by tetramethylrhodamine-phalloidin staining based confocal laser scanning microscopy", "type": "cell-based"}, "[15]": {"system": "RKO", "assay": "Binding affinity to F-actin in human RKO cells assessed as disruption of cytoskeleton organization by measuring transforming regular fibrous into punctuate structure at 33.5 uM incubated for 48 hrs by tetramethylrhodamine-phalloidin staining based confocal laser scanning microscopy", "type": "cell-based"}}, "note": "Calls of active or inactive are those of the source. No cut-off for these calls is given here.", "data": [{"molecule": "CC1=C[C@H]2[C@H]3OC(=O)[C@@]24C(=N[C@@H](Cc2ccccc2)[C@@H]4[C@@H]1C)C[C@H]1[C@H]3C[C@H](C)C[C@@]1(C)O", "values": [{"measurement": "Activity", "setting": "[1]", "value": "Active"}, {"measurement": "IC50", "setting": "[2]", "value": 16.7, "unit": "µM"}, {"measurement": "IC50", "setting": "[3]", "value": 27.8, "unit": "µM"}, {"measurement": "Activity", "setting": "[4]", "value": "Dose-dependent-effect"}, {"measurement": "Activity", "setting": "[5]", "value": "Dose-dependent-effect"}, {"measurement": "Activity", "setting": "[6]", "value": "Active"}]}, {"molecule": "C=C1[C@@H](C)[C@H]2[C@H](Cc3ccccc3)NC(=O)[C@]23[C@H](OC(C)=O)/C=C/[C@](C)(O)C[C@@H](C)C/C=C/[C@H]3[C@@H]1O", "values": [{"measurement": "Activity", "setting": "[7]", "value": "Active"}, {"measurement": "Activity", "setting": "[8]", "value": "Active"}, {"measurement": "IC50", "setting": "[2]", "value": 0.8, "unit": "µM"}, {"measurement": "IC50", "setting": "[3]", "value": 0.9, "unit": "µM"}, {"measurement": "Activity", "setting": "[4]", "value": "Dose-dependent-effect"}, {"measurement": "Activity", "setting": "[5]", "value": "Dose-dependent-effect"}]}, {"molecule": "CC1=C[C@@H]2/C=C/C[C@H](C)C[C@@](C)(O)/C=C/C(=O)[C@]23C(=O)N[C@@H](Cc2ccccc2)[C@@H]3[C@@H]1C", "values": [{"measurement": "IC50", "setting": "[2]", "value": 1.6, "unit": "µM"}, {"measurement": "IC50", "setting": "[3]", "value": 2, "unit": "µM"}, {"measurement": "Activity", "setting": "[4]", "value": "Dose-dependent-effect"}, {"measurement": "Activity", "setting": "[5]", "value": "Dose-dependent-effect"}, {"measurement": "Activity", "setting": "[9]", "value": "Active"}, {"measurement": "Activity", "setting": "[10]", "value": "Active"}]}, {"molecule": "CC1=C[C@@H]2[C@@H]3[C@H](/C=C(/C)C[C@@H](C)C[C@H]3O)[C@@H](O)[C@]23C(=O)N[C@@H](Cc2ccccc2)[C@@H]3[C@@H]1C", "values": [{"measurement": "Activity", "setting": "[11]", "value": "Active"}, {"measurement": "IC50", "setting": "[2]", "value": 45.2, "unit": "µM"}, {"measurement": "Activity", "setting": "[12]", "value": "Active"}, {"measurement": "IC50", "setting": "[3]", "value": "> 50", "unit": "µM"}, {"measurement": "Activity", "setting": "[4]", "value": "Dose-dependent-effect"}, {"measurement": "Activity", "setting": "[5]", "value": "Dose-dependent-effect"}]}, {"molecule": "CC(=O)O[C@@H]1/C=C/[C@](C)(O)C[C@@H](C)C/C=C/[C@H]2C=C(C)[C@@H](C)[C@H]3[C@H](Cc4ccccc4)NC(=O)[C@]321", "values": [{"measurement": "IC50", "setting": "[2]", "value": 11.1, "unit": "µM"}, {"measurement": "Activity", "setting": "[13]", "value": "Active"}, {"measurement": "IC50", "setting": "[3]", "value": 12.3, "unit": "µM"}, {"measurement": "Activity", "setting": "[4]", "value": "Dose-dependent-effect"}, {"measurement": "Activity", "setting": "[14]", "value": "Active"}, {"measurement": "Activity", "setting": "[5]", "value": "Dose-dependent-effect"}]}, {"molecule": "CC1=C[C@@H]2/C=C/C[C@H](C)C[C@@](C)(O)/C=C/[C@@H](O)[C@]23C(=O)N[C@@H](Cc2ccccc2)[C@@H]3[C@@H]1C", "values": [{"measurement": "IC50", "setting": "[2]", "value": 33.5, "unit": "µM"}, {"measurement": "Activity", "setting": "[12]", "value": "Active"}, {"measurement": "IC50", "setting": "[3]", "value": "> 50", "unit": "µM"}, {"measurement": "Activity", "setting": "[4]", "value": "Dose-dependent-effect"}, {"measurement": "Activity", "setting": "[5]", "value": "Dose-dependent-effect"}, {"measurement": "Activity", "setting": "[15]", "value": "Active"}]}, {"molecule": "CC1=C[C@@H]2[C@@H](C[C@H](C)C1)[C@@H](O)[C@H]1C=C(C)[C@@H](C)[C@H]3[C@H](Cc4ccccc4)NC(=O)[C@]31[C@@H]2O", "values": [{"measurement": "Activity", "setting": "[11]", "value": "Active"}, {"measurement": "IC50", "setting": "[2]", "value": 47.3, "unit": "µM"}, {"measurement": "Activity", "setting": "[12]", "value": "Active"}, {"measurement": "IC50", "setting": "[3]", "value": "> 50", "unit": "µM"}, {"measurement": "Activity", "setting": "[4]", "value": "Dose-dependent-effect"}, {"measurement": "Activity", "setting": "[5]", "value": "Dose-dependent-effect"}]}]}
